The NIST ThermoML archive (doi:10.1021/je300775u)

Experiment: xn = mol fraction of the nth substance listed
Conditions: 101 kPa, Liquid; for mass density: Vibrating tube method; for speed of sound: Pulse-echo method

ClC(Cl)(Cl)Br [bromotrichloromethane] + CCCCCCC
Conditions | mass density, 303.15 K [kg/m3] | mass density, 308.15 K [kg/m3] | mass density, 313.15 K [kg/m3] | speed of sound, 308.15 K [m/s] | speed of sound, 313.15 K [m/s]
x1 = 0.0527 | 722.5 | 717.94 | 713.35 | 1064.5 | 1044
x1 = 0.1116 | 777.25 | 772.39 | 767.5 | 1040.5 | 1020.7
x1 = 0.152 | 816.04 | 810.96 | 805.84 | 1025.3 | 1005.8
x1 = 0.2038 | 867.43 | 862.07 | 856.67 | 1007 | 988.3
x1 = 0.2512 | 916.16 | 910.53 | 904.88 | 992 | 973.6
x1 = 0.2988 | 966.84 | 960.93 | 955.01 | 977.7 | 959.8
x1 = 0.3556 | 1029.61 | 1023.38 | 1017.12 | 962.2 | 944.8
x1 = 0.4027 | 1083.75 | 1077.23 | 1070.68 | 950.4 | 933.3
x1 = 0.4603 | 1152.66 | 1145.8 | 1138.9 | 937.2 | 920.7
x1 = 0.4989 | 1200.71 | 1193.57 | 1186.41 | 929.2 | 912.9
x1 = 0.5537 | 1271.34 | 1263.88 | 1256.37 | 918.8 | 902.9
x1 = 0.5961 | 1328.29 | 1320.53 | 1312.74 | 911.3 | 895.9
x1 = 0.6562 | 1412.54 | 1404.37 | 1396.16 | 902.2 | 887.1
x1 = 0.7088 | 1489.86 | 1481.3 | 1472.71 | 895.4 | 880.6
x1 = 0.7486 | 1550.71 | 1541.85 | 1532.96 | 890.7 | 876.2
x1 = 0.8001 | 1632.7 | 1623.44 | 1614.16 | 885.8 | 871.5
x1 = 0.8456 | 1708.38 | 1698.77 | 1689.12 | 882.2 | 868.2
x1 = 0.899 | 1801.52 | 1791.47 | 1781.35 | 879 | 865.3
x1 = 0.9521 | 1898.58 | 1888.06 | 1877.49 | 877.2 | 863.7
x1 = 1 | 1991.2 | 1980.24 | 1969.25 | 876.8 | 863.6
